SMILES strings stand for the structures. Read-outs that look alike come from different tables or passages of the source.

As a reminder, the IC50 is the concentration needed to halve the response being measured. A word on the Vmax: it is the top rate of the reaction or transport when substrate is in excess.

One data set addresses FRβ (Homo sapiens, UniProt P14207). Particulars: D4 cells, 50 nM [3H]folic acid, folic acid = 1.
In the next data set the target is FRα (Homo sapiens, UniProt P15328). As to conditions: RT16 cells, 50 nM [3H]folic acid, folic acid = 1.
FRα, sequence (P15328 25-257): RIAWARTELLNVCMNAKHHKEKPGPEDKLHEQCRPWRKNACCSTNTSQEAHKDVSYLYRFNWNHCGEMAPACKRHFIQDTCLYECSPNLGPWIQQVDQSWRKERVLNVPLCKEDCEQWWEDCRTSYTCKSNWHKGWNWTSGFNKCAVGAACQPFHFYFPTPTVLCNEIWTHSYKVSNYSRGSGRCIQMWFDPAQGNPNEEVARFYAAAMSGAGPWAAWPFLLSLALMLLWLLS
In data set [1] the target is T1, hPCFT (Homo sapiens, UniProt Q96NT5).
T1 sequence (Q96NT5 1-459): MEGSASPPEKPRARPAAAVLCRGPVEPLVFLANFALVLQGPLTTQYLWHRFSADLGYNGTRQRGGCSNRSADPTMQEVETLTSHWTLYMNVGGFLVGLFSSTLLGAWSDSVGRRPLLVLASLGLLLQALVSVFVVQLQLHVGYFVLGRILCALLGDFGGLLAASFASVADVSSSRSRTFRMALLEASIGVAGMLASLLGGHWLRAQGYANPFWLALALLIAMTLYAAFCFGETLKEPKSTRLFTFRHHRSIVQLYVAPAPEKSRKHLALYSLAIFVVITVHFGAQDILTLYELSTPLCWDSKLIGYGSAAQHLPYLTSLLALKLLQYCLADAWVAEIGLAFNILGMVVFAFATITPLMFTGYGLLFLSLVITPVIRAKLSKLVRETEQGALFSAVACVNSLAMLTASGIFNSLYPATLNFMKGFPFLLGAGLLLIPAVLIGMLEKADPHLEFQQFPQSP
The data set can be described thus: Electrophysiology, Xenopus oocytes injected with hPCFT cRNA. It counts as cell-based. Particulars: 5 µM, pH 5.5, clamped at -90 mV.

The next data set has as its system R2/hPCFT4 cells. Description: Nucleoside/AICA protection from growth inhibition. It counts as cell-based, Chinese hamster. As to conditions: adenosine 60 µM, thymidine 10 µM, AICA 320 µM.
Data set [2] deals with subcutaneous human IGROV1 ovarian tumors. Description: In vivo efficacy trial, IGROV1 xenografts. More on the design: species or system female ICR SCID mice.
The target of data set [3] is T1, hPCFT. The data set can be described thus: hPCFT transport assays with [3H]MTX in R2/hPCFT4 cells. Type of data set: cell-based. Particulars: 10 µM competitor, 0.5 µM [3H]MTX, pH 5.5 to pH 7.2, R2/hPCFT4 cells.
For another data set, the system named is PC43-10 cells (hRFC). As to conditions: read-out: IC50 PC43-10; cited from earlier work.
Data set [4] concerns the target T1, hPCFT. Particulars: Lineweaver-Burke plots, ref 14 (Wang et al.), cited from earlier work.

FRβ, sequence (P14207 17-255): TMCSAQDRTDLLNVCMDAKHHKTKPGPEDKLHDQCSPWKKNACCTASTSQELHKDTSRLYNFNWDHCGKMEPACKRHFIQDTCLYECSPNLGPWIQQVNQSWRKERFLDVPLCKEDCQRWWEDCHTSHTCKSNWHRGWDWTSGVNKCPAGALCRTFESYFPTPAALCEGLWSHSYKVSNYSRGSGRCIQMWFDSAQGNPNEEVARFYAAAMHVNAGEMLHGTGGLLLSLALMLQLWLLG

In the case of `Nc1nc2[nH]c(CCc3ccc(C(=O)N[C@@H](CCC(=O)O)C(=O)O)s3)cc2c(=O)[nH]1` [Compound 2, N-({5-[(2-amino-4-oxo-4,7-dihydro-3H-pyrrolo[2,3-d]pyrimidin-6-yl)ethyl]thiophen-2-yl}carbonyl)-L-glutamic acid], the “relative binding affinity for FRβ” value on FRβ is on record as “undetectable”. At FRα, the “relative binding affinity for FRα” value is listed as “undetectable”.
Consider `Nc1nc2[nH]c(CCCc3ccc(C(=O)N[C@@H](CCC(=O)O)C(=O)O)s3)cc2c(=O)[nH]1` [Compound 3, N-({5-[(2-amino-4-oxo-4,7-dihydro-3H-pyrrolo[2,3-d]pyrimidin-6-yl)propyl]thiophen-2-yl}carbonyl)-L-glutamic acid], for which the substrate-induced current result on hPCFT [1] was “induced currents”. In addition, the “protection from growth inhibition by nucleosides/AICA” value with R2/hPCFT4 cells is given as “abolished by either adenosine or AICA alone”. Also, the “full recovery of body weight, time post last treatment” value in data set [2] (25 mg/kg/inj, folate-deficient diet) is reported as 8 days; in data set [2] (40 mg/kg/inj, folate-deficient diet) it was 10 days. Moreover, the host recovery time in data set [2] (folate-deficient diet) is listed as ≤ 10 days. The “reversible body weight loss” value in data set [2] (standard folate replete diet) is given as 2.7–5%. Besides, the “inhibition of hPCFT-mediated [3H]MTX transport” value (shortened to “inhibition of hPCFT-mediated”) at hPCFT [3] is “potent and essentially equivalent inhibitors”.
The compound `Nc1nc2[nH]c(CCCCc3ccc(C(=O)N[C@@H](CCC(=O)O)C(=O)O)s3)cc2c(=O)[nH]1` [Compound 4] returned a gross log kill in data set [2] (112.5 mg/kg/injection iv Q4dx5, folate-deficient diet) of 1.2. For the same compound, the half-maximal inhibitory concentration (IC50) in the data set with PC43-10 cells (hRFC) is > 1 µM.
In the case of `Nc1nc(N)c2nc(CNc3ccc(C(=O)N[C@@H](CCCNC(=O)c4ccccc4C(=O)O)C(=O)O)cc3)cnc2n1` [Compound 9, N^α-(4-amino-4-deoxypteroyl)-N^δ-hemiphthaloyl-L-ornithine], the “inhibition of hPCFT-mediated” value on hPCFT [3] is recorded as “did not inhibit”.
For the compound `Nc1nc2c(c(=O)[nH]1)C[C@@H](CCc1ccc(C(=O)N[C@@H](CCC(=O)O)C(=O)O)cc1)CN2` [LMTX, 5,10-dideaza-5,6,7,8-tetrahydrofolate], the “protection from growth inhibition by nucleosides/AICA” value in the data set with R2/hPCFT4 cells was “abolished by either adenosine or AICA alone”.
For `CN(Cc1cnc2nc(N)nc(N)c2n1)c1ccc(C(=O)N[C@@H](CCC(=O)O)C(=O)O)cc1` [MTX, methotrexate], on hPCFT [4] (pH 5.5), the Kt was 0.28 ± 0.02 µM and the Vmax is listed as 31.23 ± 4.31 pmol/mg/min. In addition, on hPCFT [4] (pH 6.8), the Kt was 4.52 ± 0.19 µM and the Vmax is recorded as 13.72 ± 2.26 pmol/mg/min.
As for `Nc1nc2[nH]cc(CCc3ccc(C(=O)N[C@@H](CCC(=O)O)C(=O)O)cc3)c2c(=O)[nH]1` [PMX, N-{4-[2-(2-amino-3,4-dihydro-4-oxo-7H-pyrrolo[2,3-d]pyrimidin-5-yl)ethyl]benzoyl}-L-glutamic acid], the “protection from growth inhibition by nucleosides/AICA” value in the data set with R2/hPCFT4 cells is given as “completely reversed by adenosine combined with thymidine”. The “inhibition of hPCFT-mediated” value at hPCFT [3] is “potent and essentially equivalent inhibitors”.
